Experimental findings from ChEMBL document CHEMBL1201862, “PubChem BioAssay data set” (2004) are described below.

Test systems include SK-MEL-5; CAKI-1; SF-268; NCI-H522; OVCAR-3; HL-60; NCI-H23; U-251; 786-0; BT-549; NCI-H226; ACHN; HOP-92; HCT-15; PC-3; OVCAR-4; HCC 2998; UO-31; KM12; NCI/ADR-RES.
Holding throughout (experiment): growth of human tumour cells (NCI), 48 h

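Five concentrations, 48 hours, 96-well plates. At the GI50, growth is halved.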 The source made the active and inactive calls. Cut-off read from the data, not from the text of the source: active = GI50 up to about 1.1 µM and inactive = higher.

`CN(C)c1ccc2oc(=O)c3ccccc3c2c1`: the GI50 in the test on SK-MEL-5 was 86.5 µM (inactive); with CAKI-1, 28.9 µM (inactive); in the test with SF-268 it was 28.6 µM (inactive); in the test with NCI-H522, 55.8 µM (inactive); in the test with OVCAR-3 it was > 100 µM (inactive); with HL-60 it was > 100 µM (inactive). Besides, the GI50 with NCI-H23 is 22.9 µM (inactive); with U-251, 25.3 µM (inactive); in the test with 786-0 it was 30.5 µM (inactive); in the test with BT-549 it was 34.4 µM (inactive); with NCI-H226, 46.7 µM (inactive); in the test with ACHN, 24.3 µM (inactive). The GI50 in the test on HOP-92 is 35.2 µM (inactive); in the test with HCT-15, over 100 µM; in the test on PC-3, > 100 µM (inactive); with OVCAR-4, > 100 µM (inactive); with HCC 2998, > 100 µM (inactive).
For the compound `CC1=C(C)C(=O)O[C@@H]([C@](C)(O)[C@]2(O)CC[C@@]3(O)[C@@H]4C[C@H](O)[C@]5(O)[C@@H](O)C=CC(=O)[C@]5(C)[C@H]4CC[C@]23C)C1`, the GI50 in the test on SK-MEL-5 was > 100 µM (inactive); in the test with CAKI-1 it was > 100 µM (inactive); in the test with SF-268, > 100 µM (inactive); in the test on NCI-H522, 42.3 µM (inactive); in the test on OVCAR-3, > 100 µM (inactive); in the test on UO-31, > 100 µM (inactive). Further, the GI50 is 18 µM (inactive) in the test on HL-60; > 100 µM (inactive) with NCI-H23; 89.9 µM (inactive) in the test on U-251; > 100 µM (inactive) with 786-0; > 100 µM (inactive) in the test on BT-549; > 100 µM (inactive) with NCI-H226. In addition, the GI50 in the test on ACHN is > 100 µM (inactive); in the test on KM12, > 100 µM (inactive); in the test with HOP-92 it was > 100 µM (inactive); in the test with HCT-15, over 100 µM; in the test on PC-3, > 100 µM (inactive); in the test on OVCAR-4, > 100 µM (inactive). Also, the GI50 with HCC 2998 is > 100 µM (inactive).
As to `O=C1CCc2cc3c(cc21)CC1(Cc2ccccc2C1)C3`, the GI50 is 5.77 µM (inactive) in the test on SK-MEL-5; 0.703 µM (active) with CAKI-1; 37.8 µM (inactive) in the test with SF-268; 9.14 µM (inactive) in the test on NCI-H522; 7.31 µM (inactive) with NCI/ADR-RES; 8.75 µM (inactive) with OVCAR-3. The GI50 with UO-31 is 4.02 µM (inactive); with HL-60 it was 2.43 µM (inactive); in the test on NCI-H23, 26.9 µM (inactive); in the test with U-251 it was 7.96 µM (inactive); in the test on 786-0 it was 36.3 µM (inactive); in the test with NCI-H226, 12.9 µM (inactive). Also, the GI50 in the test on ACHN is 19.8 µM (inactive); in the test on KM12, > 22.4 µM (inactive); in the test on HOP-92 it was 6.32 µM (inactive); in the test with HCT-15, 13.8 µM; in the test with PC-3, 14.2 µM (inactive); in the test with OVCAR-4, 50.1 µM (inactive). Further, in the test with HCC 2998, the GI50 was 8.75 µM (inactive).
Turning to `CC(=O)OCC1=C2C(OC(=O)C(C)C)CC3(COC(C)=O)OC3/C=C\C3(C)OC3C2OC1=O` (stereo not given), the GI50 in the test on SK-MEL-5 is > 100 µM (inactive); with CAKI-1 it was > 100 µM (inactive); with SF-268, > 100 µM (inactive); in the test on OVCAR-3 it was > 100 µM (inactive); with UO-31, > 100 µM (inactive); with HL-60 it was 34.4 µM (inactive). The GI50 in the test with NCI-H23, with U-251, in the test with 786-0, with BT-549, in the test on NCI-H226 and with ACHN was > 100 µM (inactive) in each case. In addition, the GI50 was > 100 µM (inactive) with KM12; over 100 µM in the test with HCT-15; > 100 µM (inactive) in the test on PC-3; > 100 µM (inactive) in the test on OVCAR-4; > 100 µM (inactive) in the test on HCC 2998.
For `CCc1n[nH]c(=O)n1/N=C/c1ccc(C)cc1`, the GI50 in the test on SK-MEL-5 is > 100 µM (inactive); in the test on CAKI-1, > 100 µM (inactive); in the test with SF-268 it was 66.5 µM (inactive); in the test on NCI-H522, > 100 µM (inactive); with NCI/ADR-RES it was > 100 µM (inactive); with OVCAR-3, 69.5 µM (inactive). Besides, the GI50 is 64.9 µM (inactive) in the test on UO-31; 1.37 µM (inactive) in the test with HL-60; > 100 µM (inactive) in the test with NCI-H23; > 100 µM (inactive) in the test with U-251; > 100 µM (inactive) with 786-0; > 100 µM (inactive) with BT-549. The GI50 in the test with NCI-H226 is 70.8 µM (inactive); with ACHN, > 100 µM (inactive); in the test with KM12, 69.3 µM (inactive); in the test with HOP-92 it was > 100 µM (inactive); with HCT-15, over 100 µM; with OVCAR-4, 58.5 µM (inactive). In addition, in the test with HCC 2998, the GI50 was > 100 µM (inactive).
For `Oc1cc(-c2ccccc2)nc2ncccc12`, the GI50 in the test with SK-MEL-5 was 0.0778 µM (active); with CAKI-1 it was 0.0792 µM (active); in the test on SF-268 it was 1.93 µM (inactive); in the test with NCI-H522, 0.0525 µM (active); with NCI/ADR-RES it was 0.0655 µM (active); with OVCAR-3, 0.145 µM (active). In addition, the GI50 with UO-31 was 0.272 µM (active); with HL-60, 0.0471 µM (active); in the test on NCI-H23, 0.203 µM (active); in the test with U-251 it was 0.0927 µM (active); with 786-0 it was 0.16 µM (active); in the test on NCI-H226, 0.502 µM (active). The GI50 in the test with ACHN was 0.446 µM (active); in the test on KM12, 0.0296 µM (active); in the test with HOP-92, 0.127 µM (active); with HCT-15 it was 0.0227 µM; in the test with PC-3, 0.0681 µM (active); in the test on OVCAR-4, 15 µM (inactive). In the test with HCC 2998, the GI50 was 0.232 µM (active).
Take `C/C(=N\Nc1ccc([N+](=O)[O-])cc1[N+](=O)[O-])c1sc(-n2nc(-c3ccccc3)cc2-c2ccccc2)nc1C`: the GI50 was 34.4 µM (inactive) in the test with SK-MEL-5; 20 µM (inactive) with CAKI-1; 44.2 µM (inactive) in the test with SF-268; 22 µM (inactive) in the test with NCI-H522; 21.9 µM (inactive) in the test with NCI/ADR-RES; 39.4 µM (inactive) with OVCAR-3. The GI50 in the test with UO-31 is 19.8 µM (inactive); with HL-60, 12.6 µM (inactive); in the test with NCI-H23, 32.9 µM (inactive); in the test with U-251, 42.7 µM (inactive); in the test with 786-0 it was 36.7 µM (inactive); in the test with BT-549, 36.9 µM (inactive). Also, the GI50 is 34.1 µM (inactive) in the test on NCI-H226; 16.6 µM (inactive) with ACHN; 11.3 µM (inactive) in the test on KM12; 23.9 µM (inactive) in the test on HOP-92; 38.6 µM in the test with HCT-15; 43.9 µM (inactive) in the test on OVCAR-4. Besides, in the test with HCC 2998, the GI50 was 32.9 µM (inactive).
With `OC(COC(c1ccccc1)(c1ccccc1)c1ccccc1)C(O)CC1SCCS1` (stereo not given), the GI50 in the test with SK-MEL-5 was 16.7 µM (inactive); in the test with CAKI-1 it was 21.3 µM (inactive); in the test with SF-268 it was 25.4 µM (inactive); in the test with NCI/ADR-RES, 16.3 µM (inactive); with OVCAR-3, 22.2 µM (inactive); in the test on UO-31, 10.9 µM (inactive). Moreover, the GI50 in the test on HL-60 was 13.9 µM (inactive); in the test with NCI-H23, 17.9 µM (inactive); with U-251, 21.8 µM (inactive); in the test on 786-0, 17.6 µM (inactive); in the test on BT-549 it was 20 µM (inactive); with NCI-H226, 14.9 µM (inactive). The GI50 with ACHN is 18.6 µM (inactive); in the test on KM12 it was 13 µM (inactive); with HCT-15, 21.8 µM; with PC-3, 11.8 µM (inactive).
As to `CCc1c(C)c(C#N)c(=S)n(C2OC(CO)C(O)C(O)C2O)c1C` (stereo not given), the GI50 in the test on SK-MEL-5, in the test with SF-268, with NCI-H522, with NCI/ADR-RES, in the test on OVCAR-3 and in the test on UO-31 was > 100 µM (inactive) each time. The GI50 in the test on HL-60, with NCI-H23, in the test with U-251, with 786-0, in the test on NCI-H226 and with ACHN was > 100 µM (inactive) each time. For the same compound, the GI50 in the test with KM12 is > 100 µM (inactive); in the test with HOP-92, > 100 µM (inactive); with HCT-15, over 100 µM; in the test on PC-3, > 100 µM (inactive); with OVCAR-4, > 100 µM (inactive); with HCC 2998, > 100 µM (inactive).
For the compound `CCCOc1ccc(-c2nc(-c3ccc(/N=C/c4ccc(N(CCOS(C)(=O)=O)CCOS(C)(=O)=O)cc4C)cc3)cs2)cc1`, the GI50 in the test on SK-MEL-5 was 27 µM (inactive); in the test on CAKI-1 it was 1.3 µM (inactive); with SF-268, 11.5 µM (inactive); with NCI-H522, 2.16 µM (inactive); in the test with NCI/ADR-RES it was 23.6 µM (inactive); in the test with OVCAR-3, 18.2 µM (inactive). The GI50 is 11.7 µM (inactive) in the test with UO-31; 5.05 µM (inactive) with HL-60; 10.1 µM (inactive) in the test with NCI-H23; 27.9 µM (inactive) in the test with U-251; 3.35 µM (inactive) in the test on 786-0; 22.9 µM (inactive) in the test with NCI-H226. For the same compound, the GI50 was 1.46 µM (inactive) in the test with ACHN; 13.6 µM (inactive) in the test on KM12; 24.4 µM (inactive) with HOP-92; 23.4 µM in the test on HCT-15; 18.5 µM (inactive) in the test with PC-3; 34.1 µM (inactive) with OVCAR-4. In the test with HCC 2998, the GI50 was 12 µM (inactive).
Turning to `O=C(c1cccc2cc(O)ccc12)c1cn(CCN2CCOCC2)c2ccccc12`, the GI50 in the test with SK-MEL-5 was 40 µM (inactive); in the test with CAKI-1, 39.4 µM (inactive); in the test with SF-268 it was 24 µM (inactive); in the test with NCI-H522 it was 30.3 µM (inactive); in the test with UO-31, 24.1 µM (inactive); with HL-60, 28.2 µM (inactive). The GI50 was 33.3 µM (inactive) in the test with NCI-H23; 21.1 µM (inactive) in the test on 786-0; 23.4 µM (inactive) in the test on BT-549; 39.9 µM (inactive) with NCI-H226; 33.7 µM (inactive) in the test on ACHN; 31.4 µM (inactive) with HOP-92. Also, the GI50 in the test on PC-3 is 12 µM (inactive).
